# Data from patent US20210255193A1, “LYSINE REACTIVE PROBES AND USES THEREOF” (The Scripps Research Institute, priority 2017, published 2021).
# Tests used:
# Test in all cases: competitive isoTOP-ABPP
# Assay type in all cases: binding
# [1] = biological target: T1, DYNC1H1 Cytoplasmic dynein 1 heavy chain 1 (Homo sapiens, UniProt Q14204)
# T1 construct: isoTOP-ABPP experiments performed in cell lysates (in vitro); endogenous in cells; host or cells: soluble proteome of human cancer cell lines (MDA-MB-231, Ramos, Jurkat)
# In short: (§1)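 Lysine engagement is reported as R, the MS1 peak-area ratio of heavy-tagged DMSO to light-tagged compound samples. Final fragment concentrations were 50 μM for activated esters and 100 μM for guanidinylating agents; STP-alkyne probe 0.1 mM, 1 h.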
# [2] = biological target: T2, EEF2 Elongation factor 2 (Homo sapiens, UniProt P13639); conditions: for isoTOP-ABPP ratio (R) at liganded lysine P13639_K235 / isoTOP-ABPP ratio (R) at liganded lysine P13639_K318 / R value (DMSO/fragment) for probe 1 labeling / isoTOP-ABPP reactivity ratio at lysine P13639_K235 / isoTOP-ABPP reactivity ratio at lysine P13639_K318: 50 uM, in vitro; for isoTOP-ABPP ratio (R) at liganded lysine P13639_K235 / isoTOP-ABPP ratio (R) at liganded lysine P13639_K318: sol, 231; for R value (DMSO/fragment) for probe 1 labeling / isoTOP-ABPP reactivity ratio at lysine P13639_K235 / isoTOP-ABPP reactivity ratio at lysine P13639_K318: 231 sol
# T2 construct: isoTOP-ABPP experiments performed in cell lysates (in vitro); endogenous in cells; host or cells: soluble proteome of human cancer cell lines (MDA-MB-231; Ramos and Jurkat also prepared)
# In short: as §1
# [3] = biological target: T3, ERAP1 Endoplasmic reticulum aminopeptidase 1 (Homo sapiens, UniProt Q9NZ08); conditions: for isoTOP-ABPP ratio (R) at liganded lysine Q9NZ08_K685: sol, 231
# T3 construct: endogenous in cells; host or cells: MDA-MB-231 lysate
# T3 sequence (Q9NZ08 whole entry): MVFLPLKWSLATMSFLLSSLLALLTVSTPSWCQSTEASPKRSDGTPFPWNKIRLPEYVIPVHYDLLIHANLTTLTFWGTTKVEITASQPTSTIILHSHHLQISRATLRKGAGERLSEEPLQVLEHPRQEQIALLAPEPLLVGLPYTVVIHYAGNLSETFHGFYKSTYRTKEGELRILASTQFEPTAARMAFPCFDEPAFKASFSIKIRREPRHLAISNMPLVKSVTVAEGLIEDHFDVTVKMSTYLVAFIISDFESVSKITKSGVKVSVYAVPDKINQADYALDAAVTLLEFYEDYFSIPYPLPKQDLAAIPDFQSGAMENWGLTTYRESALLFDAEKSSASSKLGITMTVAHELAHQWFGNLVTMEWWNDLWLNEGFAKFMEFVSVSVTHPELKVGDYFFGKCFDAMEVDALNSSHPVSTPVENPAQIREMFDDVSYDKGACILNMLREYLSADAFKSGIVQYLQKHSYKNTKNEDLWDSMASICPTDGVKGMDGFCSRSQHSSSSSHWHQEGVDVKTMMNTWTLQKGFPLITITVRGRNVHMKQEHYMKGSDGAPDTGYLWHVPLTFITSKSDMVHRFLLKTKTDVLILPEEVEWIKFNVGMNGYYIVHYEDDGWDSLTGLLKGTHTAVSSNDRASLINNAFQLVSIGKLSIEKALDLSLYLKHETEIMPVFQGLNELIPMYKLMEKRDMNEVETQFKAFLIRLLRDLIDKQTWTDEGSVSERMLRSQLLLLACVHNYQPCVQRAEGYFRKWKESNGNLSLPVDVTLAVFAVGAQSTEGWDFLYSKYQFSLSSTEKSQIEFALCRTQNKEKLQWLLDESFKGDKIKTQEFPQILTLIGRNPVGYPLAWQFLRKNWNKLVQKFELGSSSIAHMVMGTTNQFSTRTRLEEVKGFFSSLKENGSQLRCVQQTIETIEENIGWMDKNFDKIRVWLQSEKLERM
# In short: as §1
# [4] = biological target: T4, GLUD1 Glutamate dehydrogenase 1, mitochondrial (Homo sapiens, UniProt P00367); conditions: for isoTOP-ABPP ratio (R) at liganded lysine P00367_K480: sol, 231
# T4 construct: isoTOP-ABPP experiments performed in cell lysates (in vitro); endogenous in cells; host or cells: MDA-MB-231 soluble lysate
# T4 sequence (P00367 54-558): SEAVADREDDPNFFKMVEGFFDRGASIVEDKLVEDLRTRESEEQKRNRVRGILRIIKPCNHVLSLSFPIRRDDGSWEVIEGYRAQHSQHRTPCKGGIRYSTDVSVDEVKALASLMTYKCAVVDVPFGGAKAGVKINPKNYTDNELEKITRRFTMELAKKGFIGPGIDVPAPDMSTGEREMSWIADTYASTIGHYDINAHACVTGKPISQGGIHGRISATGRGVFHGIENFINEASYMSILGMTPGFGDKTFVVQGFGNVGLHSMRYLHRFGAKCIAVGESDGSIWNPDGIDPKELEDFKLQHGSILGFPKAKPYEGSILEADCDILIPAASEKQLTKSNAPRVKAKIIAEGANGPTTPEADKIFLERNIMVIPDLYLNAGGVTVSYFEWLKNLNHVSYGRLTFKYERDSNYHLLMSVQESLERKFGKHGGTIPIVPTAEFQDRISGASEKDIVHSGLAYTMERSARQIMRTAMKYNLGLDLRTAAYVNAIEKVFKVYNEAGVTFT
# In short: as §1
# [5] = biological target: T5, KIAA1967 DBIRD complex subunit KIAA1967 (Homo sapiens, UniProt Q8N163); conditions: for isoTOP-ABPP ratio (R) at liganded lysine Q8N163_K97 / isoTOP-ABPP ratio (R) at liganded lysine Q8N163_K112 / R value (DMSO/fragment) for probe 1 labeling / isoTOP-ABPP reactivity ratio at lysine Q8N163_K97 / isoTOP-ABPP reactivity ratio at lysine Q8N163_K112: 50 uM, in vitro; for isoTOP-ABPP ratio (R) at liganded lysine Q8N163_K97 / isoTOP-ABPP ratio (R) at liganded lysine Q8N163_K112: sol, 231; for R value (DMSO/fragment) for probe 1 labeling / isoTOP-ABPP reactivity ratio at lysine Q8N163_K97 / isoTOP-ABPP reactivity ratio at lysine Q8N163_K112: 231 sol
# T5 construct: isoTOP-ABPP experiments performed in cell lysates (in vitro); endogenous in cells; host or cells: soluble proteome of human cancer cell lines (MDA-MB-231; Ramos and Jurkat also prepared)
# T5 sequence (Q8N163 whole entry, the tested form may be a part, one chain of several): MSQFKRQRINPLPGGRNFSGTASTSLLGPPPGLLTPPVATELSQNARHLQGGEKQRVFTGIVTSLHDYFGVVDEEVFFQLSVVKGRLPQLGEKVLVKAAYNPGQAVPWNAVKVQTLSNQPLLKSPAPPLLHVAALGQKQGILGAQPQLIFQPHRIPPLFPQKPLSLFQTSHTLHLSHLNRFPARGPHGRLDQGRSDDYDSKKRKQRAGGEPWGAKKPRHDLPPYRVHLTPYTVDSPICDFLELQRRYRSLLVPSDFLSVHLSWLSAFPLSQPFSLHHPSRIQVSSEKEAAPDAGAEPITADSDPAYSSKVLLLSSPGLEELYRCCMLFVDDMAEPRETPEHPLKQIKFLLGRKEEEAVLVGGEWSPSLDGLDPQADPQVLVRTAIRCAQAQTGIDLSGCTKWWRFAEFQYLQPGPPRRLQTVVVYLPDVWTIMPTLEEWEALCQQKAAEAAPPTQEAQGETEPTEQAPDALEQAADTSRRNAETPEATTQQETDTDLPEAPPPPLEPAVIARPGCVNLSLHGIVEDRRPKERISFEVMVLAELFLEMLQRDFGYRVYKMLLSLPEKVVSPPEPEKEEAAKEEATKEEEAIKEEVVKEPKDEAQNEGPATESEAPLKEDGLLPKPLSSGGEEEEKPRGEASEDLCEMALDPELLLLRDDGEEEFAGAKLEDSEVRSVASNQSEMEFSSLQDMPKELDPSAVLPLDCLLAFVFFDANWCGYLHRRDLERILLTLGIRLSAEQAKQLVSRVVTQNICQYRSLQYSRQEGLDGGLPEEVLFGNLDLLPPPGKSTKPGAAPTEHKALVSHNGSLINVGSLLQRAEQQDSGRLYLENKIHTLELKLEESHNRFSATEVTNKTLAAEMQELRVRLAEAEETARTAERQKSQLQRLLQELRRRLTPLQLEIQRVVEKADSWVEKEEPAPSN
# In short: as §1
# [6] = biological target: T6, STRN3 Striatin-3 (Homo sapiens, UniProt Q13033); conditions: for isoTOP-ABPP ratio (R) at liganded lysine Q13033_K755: sol, 231
# T6 construct: isoTOP-ABPP experiments performed in cell lysates (in vitro); endogenous in cells; host or cells: soluble proteome of human cancer cell lines (MDA-MB-231, Ramos, Jurkat)
# T6 sequence (Q13033 1-797): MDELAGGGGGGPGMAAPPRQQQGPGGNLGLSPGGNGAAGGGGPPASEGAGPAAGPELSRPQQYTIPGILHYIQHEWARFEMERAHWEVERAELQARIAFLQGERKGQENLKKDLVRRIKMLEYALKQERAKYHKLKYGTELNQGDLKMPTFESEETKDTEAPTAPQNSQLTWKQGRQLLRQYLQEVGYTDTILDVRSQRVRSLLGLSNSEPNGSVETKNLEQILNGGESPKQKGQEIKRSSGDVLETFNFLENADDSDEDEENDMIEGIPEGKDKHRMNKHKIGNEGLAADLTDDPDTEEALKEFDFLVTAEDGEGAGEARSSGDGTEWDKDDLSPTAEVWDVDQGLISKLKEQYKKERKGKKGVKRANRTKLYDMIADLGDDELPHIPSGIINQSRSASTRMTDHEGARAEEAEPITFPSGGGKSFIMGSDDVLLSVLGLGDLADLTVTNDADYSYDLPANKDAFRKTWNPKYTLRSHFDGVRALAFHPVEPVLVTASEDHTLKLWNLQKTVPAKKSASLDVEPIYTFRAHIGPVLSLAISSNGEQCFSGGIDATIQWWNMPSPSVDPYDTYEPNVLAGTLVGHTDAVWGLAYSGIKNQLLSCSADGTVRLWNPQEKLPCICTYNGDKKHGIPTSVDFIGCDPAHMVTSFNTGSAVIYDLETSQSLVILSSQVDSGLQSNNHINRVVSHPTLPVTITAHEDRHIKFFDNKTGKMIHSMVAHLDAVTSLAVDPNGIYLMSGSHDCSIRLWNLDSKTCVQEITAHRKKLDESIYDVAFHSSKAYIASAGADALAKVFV
# In short: as §1
# [7] = biological target: T7, NAA25 N-alpha-acetyltransferase 25, NatB auxiliary subunit (Homo sapiens, UniProt Q14CX7); conditions: 50 uM, in vitro; for isoTOP-ABPP reactivity ratio at lysine Q14CX7_K575: 231 sol
# T7 construct: isoTOP-ABPP experiments performed in cell lysates (in vitro); endogenous in cells; host or cells: soluble proteome of human cancer cell lines (MDA-MB-231; Ramos and Jurkat also prepared)
# T7 sequence (Q14CX7 whole entry): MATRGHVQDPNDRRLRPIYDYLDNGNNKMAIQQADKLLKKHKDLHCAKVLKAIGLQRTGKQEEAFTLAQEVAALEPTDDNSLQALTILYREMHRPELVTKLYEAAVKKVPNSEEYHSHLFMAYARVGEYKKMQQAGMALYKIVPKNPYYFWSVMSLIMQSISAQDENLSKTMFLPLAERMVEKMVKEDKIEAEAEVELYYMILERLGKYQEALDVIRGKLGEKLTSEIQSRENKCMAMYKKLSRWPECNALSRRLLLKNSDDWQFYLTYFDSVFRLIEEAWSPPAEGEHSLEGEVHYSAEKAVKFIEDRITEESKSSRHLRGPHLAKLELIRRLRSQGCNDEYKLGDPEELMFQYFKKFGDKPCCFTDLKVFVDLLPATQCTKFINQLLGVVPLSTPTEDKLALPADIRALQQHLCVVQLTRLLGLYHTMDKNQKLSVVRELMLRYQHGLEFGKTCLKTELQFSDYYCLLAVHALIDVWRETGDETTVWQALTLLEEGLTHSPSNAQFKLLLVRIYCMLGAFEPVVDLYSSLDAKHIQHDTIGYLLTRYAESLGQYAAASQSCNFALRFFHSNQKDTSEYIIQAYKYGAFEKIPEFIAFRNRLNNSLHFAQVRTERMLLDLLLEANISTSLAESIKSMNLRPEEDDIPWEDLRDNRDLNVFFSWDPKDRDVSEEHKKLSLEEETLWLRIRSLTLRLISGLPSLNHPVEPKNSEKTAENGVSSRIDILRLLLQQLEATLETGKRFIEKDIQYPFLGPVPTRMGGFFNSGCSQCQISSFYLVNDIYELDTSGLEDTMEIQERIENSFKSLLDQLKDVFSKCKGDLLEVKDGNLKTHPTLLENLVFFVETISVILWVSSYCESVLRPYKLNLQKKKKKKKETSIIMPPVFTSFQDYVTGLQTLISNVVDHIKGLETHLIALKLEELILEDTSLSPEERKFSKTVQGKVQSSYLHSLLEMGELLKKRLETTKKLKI
# In short: as §1
SMILES,isoTOP-ABPP ratio (R) at liganded lysine P13639_K235 [2],isoTOP-ABPP ratio (R) at liganded lysine P13639_K318 [2],"isoTOP-ABPP ratio (R) at liganded lysine Q9NZ08_K685 ([3]; 50 uM, in vitro)","isoTOP-ABPP ratio (R) at liganded lysine P00367_K480 ([4]; 50 uM, in vitro)",isoTOP-ABPP ratio (R) at liganded lysine Q8N163_K97 [5],isoTOP-ABPP ratio (R) at liganded lysine Q8N163_K112 [5],"isoTOP-ABPP ratio (R) at liganded lysine Q13033_K755 ([6]; 50 uM, in vitro)",isoTOP-ABPP reactivity ratio at lysine P13639_K235 [2],isoTOP-ABPP reactivity ratio at lysine P13639_K318 [2],"isoTOP-ABPP reactivity ratio at lysine Q9NZ08_K685 ([3]; 50 uM, 231 sol, in vitro)","isoTOP-ABPP reactivity ratio at lysine P00367_K480 ([4]; 50 uM, 231 sol, in vitro)",isoTOP-ABPP reactivity ratio at lysine Q8N163_K97 [5],isoTOP-ABPP reactivity ratio at lysine Q8N163_K112 [5],isoTOP-ABPP reactivity ratio at lysine Q14CX7_K575 [7],"isoTOP-ABPP reactivity ratio at lysine Q13033_K755 ([6]; 50 uM, 231 sol, in vitro)",further results
"CC(C)(C)OC(=O)NCCCC(=O)Oc1ccc([N+](=O)[O-])cc1[N+](=O)[O-] [fragment 41, 2,4-Dinitrophenyl 4-((tert-butoxycarbonyl)amino)butanoate]",1.0,1.1,1.3,3.7,1.0,1.3,1.3,–,–,–,–,–,–,–,–,"isoTOP-ABPP ratio (R) at liganded lysine Q14204_K1649 ([1]; 50 uM, in vitro, sol, 231): 1.0"
"O=C(Oc1ccc([N+](=O)[O-])cc1[N+](=O)[O-])c1ccc(-c2ccccc2)cc1 [fragment 37, 2,4-Dinitrophenyl [1,1′-biphenyl]-4-carboxylate]",1.0,1.0,1.0,1.1,1.0,1.1,0.8,–,–,–,–,–,–,–,–,"isoTOP-ABPP ratio (R) at liganded lysine Q14CX7_K575 ([7]; sol, 231): 0.9"
"COc1cc(CCC(=O)Oc2c(F)c(F)c(F)c(F)c2F)cc(OC)c1OC [fragment 23, Pentafluorophenyl 3-(3,4,5-trimethoxyphenyl)propanoate]",–,–,–,–,–,–,–,–,–,–,–,–,–,–,–,"R value (DMSO/fragment) for probe 1 labeling ([1]; Q14204_K1649, 50 uM, 231 sol, in vitro): 1.7; R value (DMSO/fragment) for probe 1 labeling ([2]; P13639_K235): 1.6; R value (DMSO/fragment) for probe 1 labeling ([2]; P13639_K318): 1.6; R value (DMSO/fragment) for probe 1 labeling ([3]; Q9NZ08_K685, 50 uM, 231 sol, in vitro): 1.7; R value (DMSO/fragment) for probe 1 labeling ([4]; P00367_K480, 50 uM, 231 sol, in vitro): 1.8; R value (DMSO/fragment) for probe 1 labeling ([5]; Q8N163_K97): 0.8; R value (DMSO/fragment) for probe 1 labeling ([5]; Q8N163_K112): 1.1; R value (DMSO/fragment) for probe 1 labeling ([6]; Q13033_K755, 50 uM, 231 sol, in vitro): 1.2"
"O=C(ON1C(=O)CCC1=O)c1cc(C(F)(F)F)cc(C(F)(F)F)c1 [fragment 46, 3,5-Bis(trifluoromethyl)benzoic acid NHS ester]",–,–,–,–,–,–,–,–,–,–,–,–,–,–,–,"isoTOP-ABPP ratio, lysine Q14204_K1649 ([1]; 50 uM_231_sol_in vitro): 1.3; isoTOP-ABPP ratio, lysine P13639_K235 ([2]; 50 uM_231_sol_in vitro): 1.3; isoTOP-ABPP ratio, lysine P13639_K318 ([2]; 50 uM_231_sol_in vitro): 1.1; isoTOP-ABPP ratio, lysine Q9NZ08_K685 ([3]; 50 uM_231_sol_in vitro): 2.1; isoTOP-ABPP ratio, lysine P00367_K480 ([4]; 50 uM_231_sol_in vitro, possible other lysine P00367_K477): 1.5; isoTOP-ABPP ratio, lysine Q8N163_K97 ([5]; 50 uM_231_sol_in vitro): 0.9; isoTOP-ABPP ratio, lysine Q8N163_K112 ([5]; 50 uM_231_sol_in vitro): 1.1; isoTOP-ABPP ratio, lysine Q13033_K755 ([6]; 50 uM_231_sol_in vitro): 11.4"
"O=C(Oc1ccc([N+](=O)[O-])cc1[N+](=O)[O-])C(c1ccccc1)c1ccccc1 [fragment 30, 2,4-Dinitrophenyl 2,2-diphenylacetate]",–,–,–,–,–,–,–,1.4,1.4,1.2,1.8,1.0,1.4,4.7,2.0,–
"O=C(Oc1ccc([N+](=O)[O-])cc1[N+](=O)[O-])c1cc(C(F)(F)F)cc(C(F)(F)F)c1 [fragment 31, 2,4-Dinitrophenyl 3,5-bis(trifluoromethyl)benzoate]",–,–,–,–,–,–,–,1.1,1.2,1.6,1.3,0.9,1.0,1.2,1.4,–
